Measurements taken from patent US4992470A, “Method of enhancing immune response of mammals” (Iowa State University Research Foundation, Inc., priority 1990, dated 1991).

Tests used:
[1] = Stability of HMB (and KIC) in the rumen: incubation in diluted rumen fluid; type: in vitro ADME, steer
Experimental: Rumen fluid was collected from a fistulated steer. After filtration and dilution (1:4) with an artificial saliva, 25ml of the solution was added to 50ml plastic tubes. Each tube was fitted with a one-way valve to allow gases to escape while not allowing air into the tube. Each tube was then gassed with C02 and incubated at 39° C. After 30 min a solution of KIC or HMB was added to the tube in concentrations to simulate what would be present in the rumen of an animal consuming .05% of the diet as KIC or HMB. It was estimated that a 50uM concentration would be attained in this case. At timed intervals 50ul samples of this rumen fluid were taken and analyzed for KIC and HMB.

lymphocytes = experiment: In vitro effects of leucine or leucine metabolites on PHA-stimulated lymphocyte blastogenesis (3H-thymidine incorporation); type: cell-based, bovine; details: Bos taurus, Lymphocyte, 72 h; final concentration 1 mM; PHA stimulated; read-out: % Change from No Additive, in vitro lymphocyte blastogenesis (Mean Percent Change, SEM)
Experimental: Lymphocyte Blastogenesis Determinations. Blood collections, lymphocyte isolation and blastogenesis assays were performed on isolated bovine cells by using a 3-d culture procedure as described previously in Kuhlman, et al. (1988), J. Nutr., 118:1564-1569.
Isolated lymphocytes were exposed to 1 and 10 mM Leu and KIC and the metabolites isovalarate, β-hydroxy-β-methyl butyrate (HMB), β-hydroxy-β-methyl glutarate, butyrate, acetate, acetone, acetoacetate, and β-hydroxy butyrate (BOHB). The cells were then stimulated with the mitogen phytohemagglutinin, and incorporation of ^3 H-thymidine into the DNA of the dividing lymphocytes was measured.
Leucine and Leucine Metabolites. Most of the compounds listed in Table B were purchased from Sigma Chemical Company, St. Louis, MO. KIC was purchased from SOBAC (Paris, France), HMB was synthesized as described in Example 1, and the calcium salt of HMB was purified by crystallization in 95% ethanol. The calcium salt was converted to a sodium salt form and used in subsequent assays. The pH of all compounds was adjusted to approximately 7.3. Compounds were passed through a 0.2-um filter assembly to assure sterility.

Mycoplasma hyopneumoniae = experiment: Pigs infected with Mycoplasma: lung lesions, lung fluorescent antibodies, antibody titers; type: in vivo
Description: (§1) Twelve specific pathogen free (SPF) pigs 4-5 weeks of age were distributed into two groups, each being blocked by gender and litter. All pigs were fed approximately 4% of their body weight of a commercially purchased starter ration. Pigs were penned individually and allowed free access to water.
(§2) Diets were supplemented with one of two dietary treatments: Control (limestone)(n=6) and HMB (n=6). Dietary treatments were fed at 0.05% of the body weight. HMB was synthesized by the method of Example 1. One week later, pigs were injected with 5 ml/30 kg body weight of a 20% suspension of sheep red blood cells (SRBC) subcutaneously.
(§3) Fourteen days post dietary treatments, all pigs were challenged via intratracheal inoculation with 5 ml of a ground lung suspension. The suspension was derived from pig pneumonic tissue obtained from a pig experimentally inoculated with Mycoplasma hyopneumoniae. Blood samples were collected once a week for the evaluation of antibodies produced in response to the SRBC and Mycoplasma hyopneumoniae antigenic stimuli. An agglutination assay was used to determine antibody titers produced against SRBC. Titers to Mycoplasma hyopneumoniae were determined using a serum complement fixation assay. At necropsy, the extent of macroscopic pneumonia lesions was recorded and samples from all pigs were submitted for histopathology to assay microscopic lesions. Lung and bronchi samples were cultured and evaluated for the presence of Mycoplasma species (i.e., M. hyorhinis, M. hyosynoviae, and M. hyopneumoniae) and other easily isolated bacteria (i.e., bordetella, pasteurella, and hemophilus).

[2] = tested on: Bordetella broncheseptica; experiment: Pigs: nasal degeneration scores; type: in vivo; details: HMB-fed pigs
Description: as §1, §2
(§4) The iliac lymph nodes, liver, spleen, and gastrocnemius muscle were removed from the carcass and weighed. The nasal cavity was examined for evidence of Bordetella broncheseptica infection that will result in nasal turbinate degeneration. Nasal degeneration was scored as to severity with 0 indicating no lesions and the highest score, 3, corresponding to […] degeneration.

[3] = tested on: sheep red blood cells (SRBC); experiment: Pigs: antibody titers against sheep red blood cells (agglutination assay); type: in vivo; details: HMB-fed pigs; control 11.6; * p < .05
Description: as §1, §2
as §3, with “Blood samples were collected once a week for the evaluation of antibodies produced in response to the SRBC and Mycoplasma hyopneumoniae antigenic stimuli. An agglutination assay was used to determine antibody titers produced against SRBC.” left out

[4] = Pigs: organ weights at necropsy; type: in vivo; details: HMB-fed pigs
Description: as §1, §2, §4

[5] = tested on: Mycoplasma species and other easily isolated bacteria; experiment: Pigs: bacteria cultured from bronchi; type: in vivo; details: HMB-fed pigs
Description: as §1, §2
as §3, with “Blood samples were collected once a week for the evaluation of antibodies produced in response to the SRBC and Mycoplasma hyopneumoniae antigenic stimuli. An agglutination assay was used to determine antibody titers produced against SRBC.” left out

T lymphocytes = experiment: Activation of immune function of T lymphocytes, HMB compared with KIC; set-up: species or system mammals
[6] = Stability of HMB (and KIC) in the rumen: incubation in diluted rumen fluid; type: in vitro ADME, steer; details: as far as is known; general statement, oral administration to ruminants

SMILES: CC(C)(O)CC(=O)O [HMB, β-hydroxy-β-methyl butyric acid]
- Stability in rumen environment (in words) [1]: quite stable in a rumen environment
- KIC / HMB in rumen fluid ([1]; 0 min after addition, rumen fluid diluted 1:4, 39° C., initial concentration of KIC was estimated): 60 µM
- KIC / HMB in rumen fluid ([1]; 15 min after addition, rumen fluid, 39° C.): 76 µM
- KIC / HMB in rumen fluid ([1]; 30 min after addition, rumen fluid, 39° C.): 81 µM
- KIC / HMB in rumen fluid ([1]; 60 min after addition, rumen fluid, 39° C.): 71 µM
- KIC / HMB in rumen fluid ([1]; 240 min after addition, rumen fluid, 39° C.): 74 µM
- KIC / HMB in rumen fluid ([1]; 480 min after addition, rumen fluid, 39° C.): 74 µM
- activation at 1000 µM (lymphocytes): 78%
- M. hyopneumoniae colonies by fluorescent antibody technique (in words) (Mycoplasma hyopneumoniae; HMB-fed pigs): decreased
- Prevention of Mycoplasmal lung damage (in words) (Mycoplasma hyopneumoniae; HMB-fed pigs infected with M. hyopneumoniae): can prevent some of the lung damage associated with a Mycoplasmal lung agent
- Lung or bronchi evaluations (in words) (Mycoplasma hyopneumoniae; HMB-fed pigs vs control): no significant differences were seen in the lung or bronchi evaluations
- M. hyopneumoniae antibody titers (in words) (Mycoplasma hyopneumoniae; HMB-fed pigs vs control): no significant differences
- Lung fluorescent antibodies to M. hyopneumoniae (Mycoplasma hyopneumoniae; HMB-fed pigs, control 12.6): 10.3
- % lung showing lesions (Mycoplasma hyopneumoniae; HMB-fed pigs, control 18.7): 13.7%
- M. hyopneumoniae peak titers (Mycoplasma hyopneumoniae; HMB-fed pigs, serum complement fixation, control 7.1): 6.7
- Extent of mycoplasmal lung infection (in words) (Mycoplasma hyopneumoniae; vs KIC-fed or control animals, not statistically significant): lesser extent of mycoplasmal lung infection than did KIC-fed or control animals
- Nasal degeneration due to bordetella infection (in words) [2]: significant decrease in nasal degeneration due to bordetella infection
- Severity of nasal turbinate lesions (in words) [2]: less severe lesions of the nasal turbinates
- Nasal degeneration scores (0 = no lesion) ([2]; highest score 3 = moderate degeneration, control 1.6, * p < .05): 0.8
- Red blood cell titers (dilution) day 10-15 [3]: 15.5 dilution
- Size of spleen and iliac lymph node (in words) [4]: smaller in HMB-fed animals
- Iliac lymph node weight ([4]; control 3.8, * p < .05): 3.3 g
- Spleen weight ([4]; control 101): 94 g
- Bacteria cultured in the bronchi (in words) [5]: fewer bacteria cultured in the bronchi
- Bronchi, presence of bacteria ([5]; control 1.1): 0.8
- Activation of immune function of T lymphocytes relative to KIC (in words) (T lymphocytes): markedly more effective for activating the immune function of T lymphocytes
- Rumen destruction (in words) [6]: not subject to significant rumen destruction
